Where two headings read alike, the source gives them in different places. Marks after values point to notes of the source that are not given here.
Columns and labels:
sarcoma 180 cells [1] = settings: 80 μM, insonated, versus ultrasound alone; cited from earlier work
[2] = insonated solutions, TMPone; cited from earlier work
[3] = same concentration as Hp; cited from earlier work
sarcoma 180 cells [4] = settings: 56 mg/kg administered before insonation; cited from earlier work
cell lines = settings: tone-burst and pulsed ultrasound; cited from earlier work
[5] = tested on: uterine cervical squamous cell carcinomas; settings: with ultrasound; cited from earlier work
cells = settings: for Photopotentiation Factor: LD50 dark divided by LD50 light; for LD50 Light: light dose not fixed, 0.75-1.0 J/cm2 of 630 nm light
Description: As used herein, “photopotentiation factor” refers to the property of the compound(s) to exert light- or sound-mediated toxicity in excess of its (their) inherent unactivated toxicity. […] Where the term “LD50” has been used above, the term “IC50” may be substituted, to address the bioassays that concern metabolic activity rather than the endpoint of lethality, loss of reproductive capability, or clonogenic death. The relative photoactivation efficiency of a compound may also be determined using a clonogenic assay, an assay that is well known to those skilled in the art.
In accordance with the present invention, a desirable PQP derivative is one that is non-toxic (or of low toxicity) at high drug concentrations without activation, i.e., without light (also referred to as “dark”), and/or without sound, and is toxic at low concentrations when light of the appropriate wavelength, or sound of the appropriate frequency, is applied. As is recognized by those skilled in the art, the most desirable compounds are those that provide a wide range of non-toxic doses in an unactivated state, as this characteristic provides an increased safety factor for the patient.

[6] = Singlet oxygen (1O2) yield; format: physicochemical
EMT6/Ed tumors = assay: EMT6/Ed tumor control after 630 nm light applied transcutaneously; format: in vivo, Balb/c mice; settings: 50 μmol/kg body weight
Procedure: Both the concentration of drug and the dosage of light are important for treatment of tumors.
EMT6/Ed tumor control in Balb/c mice following various doses of 630 nm light applied transcutaneously. HBEA-R1 was administered at a fixed dose. True control represents animals given neither photosensitizer nor laser light. The animals were treated approximately 7 days following tumor implantation, and euthanized when tumors reached four times treatment volume.

EMT6/Ed cells [7] = assay: Propidium iodide determination of apoptotic nuclei; format: cell-based
Description: The background frequency of cells with apoptotic morphology is represented by the untreated control.

cell suspension = assay: Oxygen dependency of phototoxicity; format: cell-based; settings: total absence of oxygen
Description: Phototoxicity diminishes as the pO2 in the gas phase of the cell suspension is reduced for PDT treatment, from ambient to 0.0%. The oxygen enhancement ratio (O.E.R.) Is 4.0 at the D0.

EMT6/Ed cells [8] = assay: Cellular uptake by 14C-labeling and confocal laser scanning microscopy; settings: CLSM
[9] = Light absorption properties (red spectral region, 630 nm); format: physicochemical; settings: for A630: absorbance at 630 nm
EMT6/Ed cells [10] = tested on: EMT6/Ed cells
HL-60 cells = assay: Sonodynamic toxicity (insonation, surviving fraction); format: cell-based, human
Procedure: Sonodynamic toxicity of two perylenequinone derivatives in human promyelocytic leukemia cells in vitro, with respect to a positive control, hematoporphyrin at 1 mM.
HL-60 cells were treated with perylenequinone sensitizers and insonated as described above. The surviving fractions were plotted against sensitizer concentration. […] Cell survival decreased steeply over the next two decades of sensitizer concentration.

CCCCCCCCCCOC(C)C1=C(C)c2cc3[n-]c(cc4[n-]c(cc5nc(cc1n2)C(C)=C5C(C)OCCCCCCCCCC)c(C)c4CCC(=O)NC(CC(=O)[O-])C(=O)[O-])c(CCC(=O)NC(CC(=O)[O-])C(=O)[O-])c3C.[Ga+3].[H+].[H+].[H+] (stereo not shown) [ATX-70, 2,4-bis(1-decyloxyethyl)-Ga(lll)-1,3,5,8-tetramethylporphryin-6,7-dipropionyl diaspartic acid]
rate of ultrasound-induced cell damage (sarcoma 180 cells [1]): in excess of four times | levels of nitroxide relative to solutions containing Hp [2]: 2.5 times | ultrasound induced bleaching relative to Hp [3]: three times as great

C=Cc1c(C)c2cc3nc(c4c5[nH]c(cc6nc(cc1[nH]2)C(C)=C6CC)c(C)c5C(=O)[C@@H]4C(=O)OC)[C@@H](CCC(=O)O)[C@@H]3C [Ph-A, Pheophorbide A]
rate of ultrasound-induced cell damage (sarcoma 180 cells [1]): double | tumor growth (sarcoma 180 cells [4]): completely inhibited tumor growth

CCOC(=O)NC1=C(N2CC2)C(=O)C(NC(=O)OCC)=C(N2CC2)C1=O [diaziquone]
effect in combination with ultrasound on cytotoxicity (cell lines): synergistic effects | antitumour effect measured by volume reduction [5]: significant antitumour effect

COc1cccc2c1C(=O)c1c(O)c3c(c(O)c1C2=O)C[C@@](O)(C(=O)CO)C[C@@H]3O[C@H]1C[C@H](N)[C@H](O)[C@H](C)O1 [doxorubicin]
antitumour effect measured by volume reduction [5]: significant antitumour effect

Ethanolamine-HB [HBEA-R1]
Photopotentiation Factor (cells): 100-167 | LD50 Light (cells): 0.15 µM | cell killing with light (cells; wavelengths between at least 630 and 688 nm): capable of killing cells | LD50 Dark (cells; without light): 15 to 25 µM | ^1O2 Yield [6]: 0.60 | cure rate (EMT6/Ed tumors; 50 Joules of 630 nm light): 40% | tumor cure (EMT6/Ed tumors; 100 Joules of 630 nm light): approximately 90% | cure rates (EMT6/Ed tumors; lower light dosages): significantly lower | apoptotic morphology (EMT6/Ed cells [7]; PDT, within 48 hours of treatment): 50% | induction of apoptosis by sensitizer alone (EMT6/Ed cells [7]; photosensitizing concentrations, no light): do not induce apoptosis | phototoxicity without oxygen (cell suspension): Evidence of type 1—mediated phototoxicity | time until uptake is complete (EMT6/Ed cells [8]): ≤ 2 h

Hypocrellin B [HB, reference compound]
Photopotentiation Factor (cells): 10-13 | LD50 Light (cells): 1.5 to 2 µM | LD50 Dark (cells; without light): 20 µM | Abs. Peak in red Spectral region [9]: 658* nm | Extinction Coefficient (× 10^−3) (630 nm) [9]: 1.00 × 10^−3 | A630 [9]: 0.100 | Amax/solvent ([9]; solvent DMF): 0.118/DMF | ^1O2 Yield [6]: 0.74 | cytotoxicity under uptake conditions (EMT6/Ed cells [10]): not cytotoxic | time until cellular uptake reached equilibrium (EMT6/Ed cells [10]): ≤ 15 min

demethylated HB [DMHB]
LD50 Dark (cells): >25 µM | Photopotentiation Factor (cells): >5-8.3 | LD50 Light (cells): 3 to 5 µM | Abs. Peak in red Spectral region [9]: 648* nm | Extinction Coefficient (× 10^−3) (630 nm) [9]: 4.77 × 10^−3 | A630 [9]: 0.477 | Amax/solvent ([9]; solvent EtOH): 0.469/EtOH | ^1O2 Yield [6]: 0.42 | maximum sonotoxic effect (HL-60 cells; 100 μM to 1000 μM, versus 1000 μM Hp control): comparable to that of the Hp control | sonotoxicity (HL-60 cells; up to 100 μM): negligible sonotoxicity
